Measurements published in patent US4725683A, “Fluorophenoxyphenoxypropionates and derivatives thereof” (The Dow Chemical Company, priority 1985, dated 1988).

What was measured:
Type in all cases: in vivo
Barnyard Grass = experiment: Postemergent activity
Method: (§1) Representative compositions of the present invention were evaluated for the postemergence control of species of plants listed in Table A. In these evaluations, pots of the plant species listed in Table A, grown to a height of about 10 cms, were used. Aqueous spray compositions, containing various amounts of 2-[4-(2-fluoro-4-trifluoromethylphenoxy)-phenoxy]propionic acid methy ester, i.e., 125 ppm, 62.5 ppm, 31.25 ppm, 15.6 ppm, 7.8 ppm and 3.9 ppm, respectively, were applied to separate pots. The spray compositions were made by mixing the active ingredient in acetone to 1/2 the final volume, i.e., twice the final concentration. An equal amount of water was added to the active ingredient/acetone mixture wherein the water contained 0.1 percent by weight of TWEEN® 200 surfactant. The application to the plants was made to the point of run-off and was carried out with conventional spraying equipment. Other pots were sprayed with similar compositions containing no toxicant to serve as controls. Thereafter, the pots were maintained under conditions conducive for plant growth. Two weeks after treatment, the pots were examined for plant growth and evaluated on a scale of 0 to 100 where 0 represents no effect and 100 represents complete kill. The results of the examination of the treated pots are set forth below in Table A.
(§2) Substantially the same procedures as those described in Example A were repeated except that the active ingredients were 2-[4-(4-chloro-2-fluorophenoxy)phenoxy]propionic acid; methyl ester and its R-enantiomer and 2-(4-(4-bromo-2-fluorophenoxy)phenoxy propionic acid; methyl ester and its R enantiomer. The results are listed below in Table B.
(§3) In further operations employing the above general procedures and the indicated test compounds the following results were obtained: […]

Crabgrass = experiment: Postemergent activity
Method: as §1, §2, §3

Wheat = experiment: Postemergent activity; settings: Triticum aestivum, post-emergence, 336 h, read-out: % Control
Method: as §1, §2, §3

Wild Oats = experiment: Postemergent activity; settings: Avena fatua, post-emergence, 336 h
Method: as §1, §2, §3

Foxtail [1] = experiment: Postemergent control of plant species
Method: as §1, §3

Foxtail [2] = experiment: Postemergent control of plant species; settings: 250 ppm

CCOC(=O)CC(O)C(C)Oc1ccc(Oc2ccc(Br)cc2F)cc1 (stereo not shown)
20%: % Control (Crabgrass; 15.6 ppm) | % Control (Crabgrass; 31.2 ppm)
50%: pest or weed control at 125 ppm (Wild Oats; 125 ppm, read-out: % Control) | pest or weed control at 250 ppm (Wild Oats; 250 ppm, read-out: % Control)
0%: % Control (Barnyard Grass; 7.8 ppm) | % Control (Barnyard Grass; 15.6 ppm) | % Control (Crabgrass; 7.8 ppm) | plant injury at 7.8 ppm (Wheat; 7.8 ppm) | plant injury at 15.6 ppm (Wheat; 15.6 ppm) | plant injury at 31.2 ppm (Wheat; 31.2 ppm) | plant injury at 62.5 ppm (Wheat; 62.5 ppm) | pest or weed control at 7.8 ppm (Wild Oats; 7.8 ppm, read-out: % Control) | pest or weed control at 15.6 ppm (Wild Oats; 15.6 ppm, read-out: % Control) | pest or weed control at 31.2 ppm (Wild Oats; 31.2 ppm) | pest or weed control at 62.5 ppm (Wild Oats; 62.5 ppm, read-out: % Control) | Percent Control (Foxtail [1]; 7.8 ppm) | Percent Control (Foxtail [1]; 15.6 ppm) | Percent Control (Foxtail [1]; 31.2 ppm)
100%: % Control (Barnyard Grass; 62.5 ppm) | % Control (Barnyard Grass; 125 ppm) | % Control (Barnyard Grass; 250 ppm) | % Control (Crabgrass; 62.5 ppm) | % Control (Crabgrass; 125 ppm) | % Control (Crabgrass; 250 ppm) | Percent Control (Foxtail [1]; 62.5 ppm) | Percent Control (Foxtail [1]; 125 ppm) | Percent Control (Foxtail [2])
80%: % Control (Barnyard Grass; 31.2 ppm)
